Consider 25 compounds from patent publication US10576062B2, “Carbamoyloxymethyl triazole cyclohexyl acids as LPA antagonists” (Bristol-Myers Squibb Company, priority 2016, dated 2020).

A word on the IC50: it is the concentration needed to halve the response being measured.

In the assay the target is T1, human LPA1 (Homo sapiens, UniProt Q92633).
T1 construct: expressed in transfected cells; host or cells: Chinese hamster ovary (CHO) cells
T1 sequence (Q92633 whole entry): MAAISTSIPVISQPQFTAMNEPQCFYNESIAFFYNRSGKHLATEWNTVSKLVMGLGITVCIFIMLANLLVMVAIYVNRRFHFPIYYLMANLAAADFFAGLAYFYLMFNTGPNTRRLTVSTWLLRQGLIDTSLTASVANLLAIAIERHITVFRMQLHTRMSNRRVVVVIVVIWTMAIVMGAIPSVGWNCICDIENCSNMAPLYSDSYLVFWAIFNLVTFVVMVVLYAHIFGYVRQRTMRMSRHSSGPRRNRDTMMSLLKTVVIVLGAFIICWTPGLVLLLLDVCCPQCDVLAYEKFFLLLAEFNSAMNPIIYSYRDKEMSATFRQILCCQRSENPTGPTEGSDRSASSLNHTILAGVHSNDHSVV
The assay is described as follows: LPA1 functional antagonist assay (LPA-induced calcium flux). The class given is cell-based. To be noted: read-out: hLPA1 IC50. An outline of the steps:
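CHO cells overexpressing human LPA1, loaded with calcium dye 30 min at 37° C, were preincubated 20 min at room temperature with compound (0.08 nM–5 μM, 0.5% DMSO) in HBSS/20 mM HEPES/0.1% fatty acid-free BSA.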
A general note: Calcium assays in cells follow changes in intracellular calcium, usually with a dye or a luminescent sensor.
With `Cc1nc(-c2nnn(C)c2COC(=O)N(C)C2(c3ccccc3)CC2)ccc1O[C@H]1CCC[C@H](C(=O)O)C1` [Example 100, (1S,3S)-3-((2-methyl-6-(1-methyl-5-(((methyl(1-phenylcyclopropyl)carbamoyl)oxy)methyl)-1H-1,2,3-triazol-4-yl)pyridin-3-yl)oxy)cyclohexane-1-carboxylic acid], the IC50 came to 70 nM. As for `Cc1nc(-c2nnn(C)c2COC(=O)N(C)CCC(F)(F)F)ccc1O[C@H]1CCC[C@H](C(=O)O)C1` [Example 101, (1S,3S)-3-((2-methyl-6-(1-methyl-5-(((methyl(3,3,3-trifluoropropyl)carbamoyl)oxy)methyl)-1H-1,2,3-triazol-4-yl)pyridin-3-yl)oxy)cyclohexane-1-carboxylic acid], the half-maximal inhibitory concentration (IC50) came out at 49 nM. The result for `Cc1nc(-c2nnn(C)c2COC(=O)N(C)C23CC(C2)C3)ccc1O[C@H]1CCC[C@H](C(=O)O)C1` [Example 102, (1S,3S)-3-((6-(5-(((bicyclo[1.1.1]pentan-1-yl(methyl)carbamoyl)oxy)methyl)-1-methyl-1H-1,2,3-triazol-4-yl)-2-methylpyridin-3-yl)oxy)cyclohexane-1-carboxylic acid] reads 53 nM; that for `Cc1nc(-c2nnn(C)c2COC(=O)N(C)CCc2ccccc2)ccc1O[C@H]1CCC[C@H](C(=O)O)C1` [Example 103, (1S,3S)-3-((2-methyl-6-(1-methyl-5-(((methyl(phenethyl)carbamoyl)oxy)methyl)-1H-1,2,3-triazol-4-yl)pyridin-3-yl)oxy)cyclohexane-1-carboxylic acid], 119 nM. Consider `CCCN(C)C(=O)OCc1c(-c2ccc(O[C@H]3CCC[C@H](C(=O)O)C3)c(C)n2)nnn1C` [Example 104, (1S,3S)-3-((2-methyl-6-(1-methyl-5-(((methyl(propyl)carbamoyl)oxy)methyl)-1H-1,2,3-triazol-4-yl)pyridin-3-yl)oxy)cyclohexane-1-carboxylic acid], for which the 50% inhibitory concentration (IC50) came out at 19 nM.

On to `Cc1nc(-c2nnn(C)c2COC(=O)NC23CC(C2)C3)ccc1O[C@H]1CCC[C@H](C(=O)O)C1` [Example 105, (1S,3S)-3-((6-(5-(((bicyclo[1.1.1]pentan-1-ylcarbamoyl)oxy)methyl)-1-methyl-1H-1,2,3-triazol-4-yl)-2-methylpyridin-3-yl)oxy)cyclohexane-1-carboxylic acid], for which the IC50 worked out at 576 nM. For `Cc1nc(-c2nnn(C)c2COC(=O)NCC2CCC2)ccc1O[C@H]1CCC[C@H](C(=O)O)C1` [Example 108, (1S,3S)-3-((6-(5-((((cyclobutylmethyl)carbamoyl)oxy)methyl)-1-methyl-1H-1,2,3-triazol-4-yl)-2-methylpyridin-3-yl)oxy)cyclohexane-1-carboxylic acid], the IC50 stood at 108 nM.

Take `[2H]C([2H])([2H])n1nnc(-c2ccc(O[C@H]3CCC[C@H](C(=O)O)C3)cn2)c1COC(=O)N(C)CC1CC1` [Example 110, (1S,3S)-3-((6-(5-((((cyclopropylmethyl)(methyl)carbamoyl)oxy)methyl)-1-(methyl-d3)-1H-1,2,3-triazol-4-yl)pyridin-3-yl)oxy)cyclohexane-1-carboxylic acid]: the IC50 came out at 31 nM. On to `[2H]C([2H])([2H])n1nnc(-c2ccc(O[C@H]3CCC[C@H](C(=O)O)C3)cn2)c1COC(=O)N(C)C1CCCC1` [Example 111, (1S,3S)-3-((6-(5-(((cyclopentyl(methyl)carbamoyl)oxy)methyl)-1-(methyl-d3)-1H-1,2,3-triazol-4-yl)pyridin-3-yl)oxy)cyclohexane-1-carboxylic acid], for which the IC50 was determined as 23 nM. The result for `[2H]C([2H])([2H])n1nnc(-c2ccc(O[C@H]3CCC[C@H](C(=O)O)C3)cn2)c1COC(=O)N(C)CCCC` [Example 112, (1S,3S)-3-((6-(5-(((butyl(methyl)carbamoyl)oxy)methyl)-1-(methyl-d3)-1H-1,2,3-triazol-4-yl)pyridin-3-yl)oxy)cyclohexane-1-carboxylic acid] reads 17 nM. Take `CCN(CC1CCC1)C(=O)OCc1c(-c2ccc(O[C@H]3CCC[C@H](C(=O)O)C3)c(C)n2)nnn1C` [Example 113, (1S,3S)-3-((6-(5-((((cyclobutylmethyl)(ethyl)carbamoyl)oxy)methyl)-1-methyl-1H-1,2,3-triazol-4-yl)-2-methylpyridin-3-yl)oxy)cyclohexane-1-carboxylic acid]: the IC50 is 15 nM.

Consider `Cc1nc(-c2nnn(C)c2COC(=O)N2CCOCC2)ccc1O[C@H]1CCC[C@H](C(=O)O)C1` [Example 114, (1S,3S)-3-((2-methyl-6-(1-methyl-5-(((morpholine-4-carbonyl)oxy)methyl)-1H-1,2,3-triazol-4-yl)pyridin-3-yl)oxy)cyclohexane-1-carboxylic acid], for which the IC50 was determined as 643 nM.

In the case of `Cc1nc(-c2nnn(C)c2COC(=O)N(C)CC2CC2)ccc1O[C@H]1CCC[C@H](C(=O)O)C1` [Example 115, (1S,3S)-3-((6-(5-((((cyclopropylmethyl)(methyl)carbamoyl)oxy)methyl)-1-methyl-1H-1,2,3-triazol-4-yl)-2-methylpyridin-3-yl)oxy)cyclohexane-1-carboxylic acid], the IC50 came to 18 nM. The result for `Cc1nc(-c2nnn(C)c2COC(=O)N(C)CC(C)C)ccc1O[C@H]1CCC[C@H](C(=O)O)C1` [Example 116, (1S,3S)-3-((6-(5-(((isobutyl(methyl)carbamoyl)oxy)methyl)-1-methyl-1H-1,2,3-triazol-4-yl)-2-methylpyridin-3-yl)oxy)cyclohexane-1-carboxylic acid] reads 29 nM; that for `Cc1nc(-c2nnn(C)c2COC(=O)N(C)CC2CCOCC2)ccc1O[C@H]1CCC[C@H](C(=O)O)C1` [Example 117, (1S,3S)-3-((2-methyl-6-(1-methyl-5-(((methyl((tetrahydro-2H-pyran-4-yl)methyl)carbamoyl)oxy)methyl)-1H-1,2,3-triazol-4-yl)pyridin-3-yl)oxy)cyclohexane-1-carboxylic acid], 17 nM. As for `Cc1nc(-c2nnn(C)c2COC(=O)N(C)Cc2ccccn2)ccc1O[C@H]1CCC[C@H](C(=O)O)C1` [Example 118, (1S,3S)-3-((2-methyl-6-(1-methyl-5-(((methyl(pyridin-2-ylmethyl)carbamoyl)oxy)methyl)-1H-1,2,3-triazol-4-yl)pyridin-3-yl)oxy)cyclohexane-1-carboxylic acid], the figure is 211 nM; as for `Cc1nc(-c2nnn(C)c2COC(=O)N(C)Cc2cccnc2)ccc1O[C@H]1CCC[C@H](C(=O)O)C1` [Example 120, (1S,3S)-3-((2-methyl-6-(1-methyl-5-(((methyl(pyridin-3-ylmethyl)carbamoyl)oxy)methyl)-1H-1,2,3-triazol-4-yl)pyridin-3-yl)oxy)cyclohexane-1-carboxylic acid], 809 nM; as for `Cc1nc(-c2nnn(C)c2COC(=O)N(C)Cc2ncccn2)ccc1O[C@H]1CCC[C@H](C(=O)O)C1` [Example 121, (1S,3S)-3-((2-methyl-6-(1-methyl-5-(((methyl(pyrimidin-2-ylmethyl)carbamoyl)oxy)methyl)-1H-1,2,3-triazol-4-yl)pyridin-3-yl)oxy)cyclohexane-1-carboxylic acid], 1090 nM. The result for `Cc1nc(-c2nnn(C)c2COC(=O)N(C)Cc2ccncc2)ccc1O[C@H]1CCC[C@H](C(=O)O)C1` [Example 122, (1S,3S)-3-((2-methyl-6-(1-methyl-5-(((methyl(pyridin-4-ylmethyl)carbamoyl)oxy)methyl)-1H-1,2,3-triazol-4-yl)pyridin-3-yl)oxy)cyclohexane-1-carboxylic acid] reads 873 nM; that for `Cc1nc(-c2nnn(C)c2COC(=O)N(C)Cc2cnccn2)ccc1O[C@H]1CCC[C@H](C(=O)O)C1` [Example 123, (1S,3S)-3-((2-methyl-6-(1-methyl-5-(((methyl(pyrazin-2-ylmethyl)carbamoyl)oxy)methyl)-1H-1,2,3-triazol-4-yl)pyridin-3-yl)oxy)cyclohexane-1-carboxylic acid], 618 nM; that for `Cc1nc(-c2nnn(C)c2COC(=O)N(C)Cc2ccnn2C)ccc1O[C@H]1CCC[C@H](C(=O)O)C1` [Example 124, (1S,3S)-3-((2-methyl-6-(1-methyl-5-(((methyl((1-methyl-1H-pyrazol-5-yl)methyl)carbamoyl)oxy)methyl)-1H-1,2,3-triazol-4-yl)pyridin-3-yl)oxy)cyclohexane-1-carboxylic acid], 982 nM. Regarding `Cc1nc(-c2nnn(C)c2COC(=O)N(C)CC2COCCN2)ccc1O[C@H]1CCC[C@H](C(=O)O)C1` (stereo partly drawn) [Example 125, (1S,3S)-3-((2-methyl-6-(1-methyl-5-(((methyl(morpholin-3-ylmethyl)carbamoyl)oxy)methyl)-1H-1,2,3-triazol-4-yl)pyridin-3-yl)oxy)cyclohexane-1-carboxylic acid], the IC50 was 668 nM. For `Cc1nc(-c2nnn(C)c2COC(=O)N(C)CC2CCOC2)ccc1O[C@H]1CCC[C@H](C(=O)O)C1` (stereo partly drawn) [Example 126, (1S,3S)-3-((2-methyl-6-(1-methyl-5-(((methyl((tetrahydrofuran-3-yl)methyl)carbamoyl)oxy)methyl)-1H-1,2,3-triazol-4-yl)pyridin-3-yl)oxy)cyclohexane-1-carboxylic acid], the IC50 amounted to 346 nM. As for `CCCCN(CC)C(=O)OCc1c(-c2ccc(O[C@H]3CCC[C@H](C(=O)O)C3)c(C)n2)nnn1C` [Example 127, (1S,3S)-3-((6-(5-(((butyl(ethyl)carbamoyl)oxy)methyl)-1-methyl-1H-1,2,3-triazol-4-yl)-2-methylpyridin-3-yl)oxy)cyclohexane-1-carboxylic acid], the figure is 33 nM; as for `CCCN(CC)C(=O)OCc1c(-c2ccc(O[C@H]3CCC[C@H](C(=O)O)C3)c(C)n2)nnn1C` [Example 128, (1S,3S)-3-((6-(5-(((ethyl(propyl)carbamoyl)oxy)methyl)-1-methyl-1H-1,2,3-triazol-4-yl)-2-methylpyridin-3-yl)oxy)cyclohexane-1-carboxylic acid], 158 nM.
